In one series the target is PDE9 (Homo sapiens (Human), UniProt O76083). Briefly: PDE9-inhibiting activity (SPA enzyme assay). Type of series: biochemical. The settings on record: IC50 values; cGMP 1 μM substrate, 30° C.; read-out: PDE9 inhibition. Here is the method:
The PDE9-inhibiting activity was measured by the following method. That is, to a buffer solution containing tris(hydroxymethyl)aminomethane-hydrochloric acid (40 mM, pH 8.0), magnesium chloride (5 mM), and 2-mercaptoethanol (4 mM) were added cGMP (1 μM) and ^3H-cGMP (0.33 μCi/ml) to give a substrate buffer solution. A test substance solution and an enzyme solution which had been adjusted to an optimal concentration were added thereto to perform a reaction at 30° C. The enzyme reaction was stopped by the addition of Scintillation Proximity Assay (SPA) Beads (Perkin Elmer, USA) containing 5 mM 3-isobutyl-1-methylxanthine (IBMX). For the enzyme activity, the amount of 5′-GMP, which is a reaction degradation product bound to SPA beads, was measured with a TopCount microplate reader (Hewlett Packard, USA). The inhibitory rate was calculated by taking the radioactivity of the control containing no test substance as (A), taking the radioactivity of the blank containing no enzyme as (B), and taking the radioactivity of the test substance as (C), and using the following equation.

The test system of series [1] is urethra relaxation response. Briefly: Simultaneous measurement model for rat bladder contraction/urethra relaxation responses. Type of series: in vivo. Conditions: female SD rat, increase relative to the solvent administration group, read-out: Ratio with increased urethra relaxation time during voiding (vs vehicle) (%). The protocol:
Simultaneous measurement of the bladder contraction and urethra relaxation responses using a rat was carried out with a partial modification of a method in Wibberley et al. (Wibberley, A., et al., Br. J. Pharmacol., 136: pp. 399-414 (2002)). That is, a female Sprague-Dawley (SD) rat (Charles River Laboratories Japan, Inc.) was anesthetized with urethane, and the bladder was exposed by a midline incision in the lower abdomen. A double lumen cannula (a cannula having a dual structure by PE190 and PE50) from the bladder apex was inserted into the bladder, and the bladder apex and the cannula were fixed by sutures at a point where the tip reached the proximal urethra. While infusing physiological saline into the urethra through the outer cannula, the urethral inner pressure was measured by a pressure transducer through the inner cannula with a saline solution infused into the urethra through the outer cannula. On the other hand, a single cannula (PESO) was inserted into the bladder from the bladder apex and placed therein. The inner pressure of the bladder was measured through this cannula. After a postoperative stabilization period had passed, physiological saline was infused into the bladder through the cannula of the bladder apex to cause a bladder contraction reaction, and thus cause a urethra relaxation response accompanying the bladder contraction reflex. The test substance was administered intravenously or intraduodenally.

The structures appear in SMILES notation.

Chain of PDE9 (O76083 whole entry): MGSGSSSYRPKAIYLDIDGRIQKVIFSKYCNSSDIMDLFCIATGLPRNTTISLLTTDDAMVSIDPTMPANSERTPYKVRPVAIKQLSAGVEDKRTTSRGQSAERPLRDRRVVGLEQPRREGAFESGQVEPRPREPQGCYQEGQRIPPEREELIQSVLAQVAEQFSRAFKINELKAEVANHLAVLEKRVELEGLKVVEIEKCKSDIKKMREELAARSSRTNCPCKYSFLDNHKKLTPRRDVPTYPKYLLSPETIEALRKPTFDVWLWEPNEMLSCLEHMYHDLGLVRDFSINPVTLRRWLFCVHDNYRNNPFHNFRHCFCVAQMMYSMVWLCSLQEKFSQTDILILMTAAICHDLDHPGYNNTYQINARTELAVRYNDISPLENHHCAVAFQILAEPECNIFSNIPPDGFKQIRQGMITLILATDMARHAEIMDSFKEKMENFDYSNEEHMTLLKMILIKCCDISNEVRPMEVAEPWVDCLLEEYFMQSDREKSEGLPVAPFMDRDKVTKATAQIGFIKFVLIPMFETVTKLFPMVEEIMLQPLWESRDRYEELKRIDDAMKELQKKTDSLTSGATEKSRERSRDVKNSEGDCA

Consider `Cc1cc2[nH]c(=O)c3cnn(C4CCOCC4)c3c2cc1C(=O)N1CCC2(CCN(Cc3ccccc3)CC2)CC1` [Example 16], for which the melting point (as a rule, the temperature of the solid-liquid transition) was 221 to 224 °C. In addition, the IC50 at PDE9 was determined as 9.1 nM.
On the same counts, the results for `Cc1cc2[nH]c(=O)c3cnn(C4CCOCC4)c3c2cc1C(=O)N1CCN(c2ccccn2)CC1` [Example 17] are 272 to 275 °C and 2.1 nM.
`Cc1cc2[nH]c(=O)c3cnn(C4CCOCC4)c3c2cc1C(=O)N1CCC(Oc2ccccn2)CC1` [Example 22] registered a melting point of 250 to 253 °C. Besides, the IC50 on PDE9 turned out to be 2.2 nM. The response vs control in vivo at 1 mg/kg in series [1] was found to be 142%.
On the same counts, the results for `Cc1cc2[nH]c(=O)c3cnn(C4CCOCC4)c3c2cc1C(=O)NCC1(N2CCOCC2)CCCCC1.Cl` [Example 23] are 281 to 283 °C, 0.4 nM and 168%.
Regarding `COCC1CCN(C(=O)c2cc3c(cc2C)[nH]c(=O)c2cnn(C4CCOCC4)c23)CC1.Cl` [Example 28], the melting point lay in the range of 253 to 255 °C. Further, at PDE9, the IC50 was determined as 9.1 nM.
Consider `CCOC1CCN(C(=O)c2cc3c(cc2C)[nH]c(=O)c2cnn(C4CCOCC4)c23)CC1` [Example 40], for which the IC50 on PDE9 worked out at 8.9 nM. Besides, the response vs control in vivo at 1 mg/kg in series [1] amounted to 138%.
The compound `Cc1cc2[nH]c(=O)c3cnn(C4CCOCC4)c3c2cc1C(=O)N1CCN(C)C(c2cccnc2)C1` (stereo not shown) [Example 49] registered a melting point of 255 to 257 °C. Further, the IC50 at PDE9 stood at 3.9 nM.
On to `Cc1cc2[nH]c(=O)c3cnn(C4CCC4)c3c2cc1C(=O)N1CCN(CC2CCOCC2)CC1` [Example 55], for which the IC50 at PDE9 came to 15 nM. The response vs control in vivo at 1 mg/kg in series [1] was 166%.
On the same counts, the results for `CCOCC1CCN(C(=O)c2cc3c(cc2C)[nH]c(=O)c2cnn(C4CCOCC4)c23)CC1` [Example 56] are 4.4 nM and 158%.
`CCOCCCN1CCN(C(=O)c2cc3c(cc2C)[nH]c(=O)c2cnn(C4CCOCC4)c23)CC1` [Example 63]: the melting point was 217 to 219 °C. The IC50 on PDE9 came out at 8.4 nM.
On the same counts, the results for `COCCC1CCN(C(=O)c2cc3c(cc2C)[nH]c(=O)c2cnn(C4CCOCC4)c23)CC1` [Example 66] are 241 to 242 °C and 4.3 nM.
Compound `CCOCC1CN(C(=O)c2cc3c(cc2C)[nH]c(=O)c2cnn(C4CCOCC4)c23)C1` [Example 86] gave a melting point of 226 to 228 °C. Also, the IC50 on PDE9 worked out at 3.3 nM.
For `COCCCCN1CCN(C(=O)c2cc3c(cc2C)[nH]c(=O)c2cnn(CC4CC4)c23)CC1.Cl` [Example 103] the same measures were 207 to 208 °C and 13 nM.
Turning to `CCOCCCCN1CCN(C(=O)c2cc3c(cc2C)[nH]c(=O)c2cnn(C4CCOCC4)c23)C[C@@H]1C` [Example 109], the IC50 on PDE9 is 5.8 nM. Moreover, the response vs control in vivo at 1 mg/kg in series [1] was 158%.
`COCC(F)(F)CN1CCN(C(=O)c2cc3c(cc2C)[nH]c(=O)c2cnn(C4CCOCC4)c23)CC1` [Example 133] returned a melting point of 212 to 213 °C. In addition, on PDE9, the IC50 amounted to 8.3 nM.
On the same counts, the results for `Cc1cc2[nH]c(=O)c3cnn(C4CCOCC4)c3c2cc1C(=O)N1CCC(OCC(C)(F)F)CC1` [Example 176] are 210 to 211 °C and 8.4 nM.
On the same counts, the results for `Cc1cc2[nH]c(=O)c3cnn(C4CCOCC4)c3c2cc1C(=O)N1CCC(OC[C@@H](C)F)CC1` [Example 177] are 205 to 206 °C and 9.7 nM.
For `Cc1cc2[nH]c(=O)c3cnn(C4CCOCC4)c3c2cc1C(=O)N1CCC(COC2CC2)CC1` [Example 217] the same measures were 210 to 211 °C and 4.4 nM.
For the compound `Cc1cc2[nH]c(=O)c3cnn([C@H]4CCOC4)c3c2cc1C(=O)N1CCC(OC2CC2)CC1` [Example 218], the melting point lay within 197 to 198 °C. Besides, the IC50 at PDE9 stood at 17 nM.

The values above are taken from patent US8822448B2, “Pyrazoloquinoline compound” (Astellas Pharma Inc., priority 2010, dated 2014).
